From PubChem BioAssay (NCI)
“And” between values parts separate entries of the source, which are not always exact repeats. Identical values can stand only once.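 Values below derive from 48-hour exposures of cells grown in 96-well plates, with endpoints linearly interpolated between the two concentrations bracketing the appropriate inhibition level. GI50 = concentration required for 50% inhibition of growth. Definition used: TGI = concentration required for complete inhibition of growth.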

Key:
Assay in all cases: DTP human tumour cell line panel, 48 h
LOX IMVI melanoma = test system: LOX IMVI melanoma
HT29 colon = test system: HT29 colon
786-0 renal = test system: 786-0 renal
SR leukemia = test system: SR leukemia
EKVX NSCLC = test system: EKVX NSCLC
ACHN renal = test system: ACHN renal
COLO 205 colon = test system: COLO 205 colon
DU-145 prostate = test system: DU-145 prostate
OVCAR-5 ovarian = test system: OVCAR-5 ovarian
HL-60(TB) leukemia = test system: HL-60(TB) leukemia

Structure (SMILES)	GI50 (LOX IMVI melanoma)	TGI (LOX IMVI melanoma)	GI50 (HT29 colon)	TGI (HT29 colon)	GI50 (786-0 renal)	TGI (786-0 renal)	GI50 (SR leukemia)	TGI (SR leukemia)	GI50 (EKVX NSCLC)	TGI (EKVX NSCLC)	GI50 (ACHN renal)	TGI (ACHN renal)	GI50 (COLO 205 colon)	TGI (COLO 205 colon)	GI50 (DU-145 prostate)	TGI (DU-145 prostate)	GI50 (OVCAR-5 ovarian)	TGI (OVCAR-5 ovarian)	GI50 (HL-60(TB) leukemia)	TGI (HL-60(TB) leukemia)
O=C(CCN1CCCN(c2cnc3ccccc3n2)CC1)c1csc2ccccc12	17.2 µM	31.3 µM	13 µM	28.2 µM	18.4 µM	32.3 µM	24 µM	56.7 µM	19.6 µM	38.7 µM	17.9 µM	31.8 µM	17.6 µM	33.4 µM	16.6 µM	32.4 µM	28.9 µM	> 100 µM	27.2 µM	59.7 µM
NC1(C(=O)N[C@@H](CCO)c2ccc(Cl)cc2)CCN(c2ncnc3[nH]ccc23)CC1	> 2.85 µM and 22.2 µM	> 100 µM	2.5 µM and 5.26 µM	> 100 µM	0.292 µM and 0.354 µM	> 100 µM	2.24 µM and 5.95 µM	> 10 µM and 39.5 µM	7.46 µM	> 100 µM	> 2.01 µM and 9.6 µM	> 100 µM	1.9 µM and 10.9 µM	> 83.7 µM	> 2.74 µM and 29.7 µM	> 100 µM	> 2.22 µM and 9.44 µM	> 100 µM	> 4.63 µM and 24.2 µM	> 67.8 µM
CN(C)C1CN(C(=O)c2cc(-c3ccc4ncnc(N5CCc6cc(F)c(Cl)cc65)c4c3)cnc2N)C1	0.458 µM	> 100 µM	0.543 µM	> 100 µM	0.436 µM	> 100 µM	1.17 µM	> 100 µM	–	–	0.443 µM	> 100 µM	1.97 µM	> 100 µM	0.594 µM	> 100 µM	0.743 µM	> 100 µM	0.151 µM	1.49 µM
Nc1n[nH]c2ccc([C@@H]3Nc4ccc5cn[nH]c5c4[C@H]4C5CCC(C5)[C@@H]34)cc12 (stereo partly specified)	0.567 µM	> 81.2 µM	0.382 µM	> 100 µM	0.95 µM	98.6 µM	0.361 µM	> 100 µM	0.554 µM	> 100 µM	0.797 µM	> 91.9 µM	0.332 µM	3.03 µM	0.417 µM	> 100 µM	1.14 µM	99.3 µM	0.326 µM	–
c1ccc(CC(Nc2cccnc2)c2ccccc2)cc1 (stereo unspecified)	–	31.9 µM	–	32.6 µM	–	54.4 µM	–	50.9 µM	–	98.3 µM	–	> 100 µM	–	37 µM	–	> 100 µM	–	98.8 µM	–	50.1 µM
COc1cc(C(=O)NN=C2c3ccccc3-c3ccccc32)cc(OC)c1OC	2.78 µM	49.4 µM	2.32 µM	56.6 µM	6.86 µM	31.3 µM	0.339 µM	10.6 µM	–	–	4.21 µM	24.2 µM	3.49 µM	32.1 µM	5.34 µM	32.8 µM	7.95 µM	> 100 µM	2.21 µM	7.12 µM
CO/C(=C1/NC(=O)C(Cc2ccc(O)c(Br)c2)N(C)C(=O)C(C)NC(=O)CCC/C=C(\C)CCC(C)OC1=O)c1ccccc1 (stereo unspecified)	0.0159 µM	0.653 µM	< 0.0135 µM	–	0.0263 µM	0.0692 µM	–	> 100 µM	0.0425 µM	–	0.0192 µM	0.0623 µM	0.0233 µM	> 100 µM	< 0.0185 µM	1.73 µM	0.0445 µM	> 35 µM	0.033 µM	0.999 µM
CN(C)c1ccc(/C=c2/c3cc(O)ccc3n3c2cc(-c2ccccc2)[n+]3C)cc1	–	2.47 µM	–	3.86 µM	1.31 µM	–	–	4.41 µM	–	–	4.78 µM	> 100 µM	–	–	–	6.07 µM	6.04 µM	> 100 µM	–	1.05 µM
O=c1/c(=C\c2ccc(Br)cc2)sc2n1C(c1ccc(Br)cc1)C1=C(N=2)c2ccc3ccccc3c2OCC1 (stereo unspecified)	> 100 µM	> 100 µM	> 100 µM	> 100 µM	> 100 µM	> 100 µM	35.4 µM	> 100 µM	> 100 µM	> 100 µM	> 100 µM	> 100 µM	> 100 µM	> 100 µM	> 100 µM	> 100 µM	> 100 µM	> 100 µM	> 100 µM	> 100 µM
COc1ccc(/C=C\c2cc(OC)c(OC)c(OC)c2)c(NS(=O)(=O)c2ccc(F)cc2)c1O	0.142 µM	36.8 µM	2.28 µM	20.5 µM	0.294 µM	47.5 µM	0.041 µM	> 68.1 µM	0.466 µM	> 100 µM	0.189 µM	96.9 µM	1.93 µM	7.94 µM	0.039 µM	–	0.202 µM	> 100 µM	0.032 µM	23.8 µM
COc1cc2c(cc1OCCCN1CCN(C(=S)SCCC(C#N)(c3ccccc3)c3ccccc3)CC1)N=C[C@@H]1CCCN1C2=O	0.721 µM	2.03 µM	0.944 µM	> 20.7 µM	0.493 µM	1.08 µM	0.431 µM	–	2.17 µM	5.27 µM	0.875 µM	2.12 µM	1.3 µM	2.78 µM	0.469 µM	–	1.14 µM	2.44 µM	0.876 µM	–
Nc1c(C(=O)Nc2cccc(C(F)(F)F)c2)sc2nc3c(cc12)CCCCCC3	3.04 µM	11.2 µM	3.24 µM	32.4 µM	1.6 µM	3.12 µM	3.77 µM	19 µM	–	–	1.85 µM	4.46 µM	3.07 µM	14 µM	2.65 µM	10.2 µM	3.29 µM	13.7 µM	11.3 µM	> 100 µM
CC(=O)Nc1cc2c3c(cccc3c1)-c1ccccc1-2	38.9 µM	> 100 µM	> 100 µM	> 100 µM	14.2 µM	40 µM	28.6 µM	> 100 µM	7.94 µM	38.9 µM	19.2 µM	52.2 µM	> 100 µM	> 100 µM	16.3 µM	30.2 µM	16.7 µM	35.7 µM	0.25 µM	> 100 µM
Cc1cnc(-c2ccc(-c3ccc(NC(=O)Nc4c(F)cc(F)cc4F)cc3F)c3c2C(=O)NC3)[nH]1	0.0973 µM and 0.386 µM	4.22 µM and 14.5 µM	0.431 µM and 0.359 µM	2.66 µM and 2.45 µM	1.25 µM	2.86 µM	0.0294 µM and < 0.01 µM	–	2.33 µM and 2.96 µM	> 100 µM	2.55 µM and 1.35 µM	> 100 µM and 28.6 µM	< 0.01 µM	13.2 µM and 27.3 µM	1.1 µM and 1.42 µM	4.64 µM and 7.36 µM	1.61 µM and 1.56 µM	13.2 µM and 12.6 µM	1.1 µM and 0.946 µM	12.9 µM and 16.9 µM
COC(=O)Nc1nc2ccc(C(=O)c3ccc(F)cc3)cc2[nH]1	0.762 µM	> 100 µM	0.0785 µM	> 100 µM	0.578 µM	7.83 µM	0.0442 µM	> 100 µM	0.438 µM	> 100 µM	1.05 µM	> 100 µM	0.152 µM	0.554 µM	0.298 µM	0.858 µM	2.45 µM	> 100 µM	0.107 µM	0.608 µM
C=C(Br)COc1ccc2c(C)cc(=O)oc2c1	–	> 100 µM	–	> 100 µM	–	> 100 µM	–	> 100 µM	–	> 100 µM	–	> 100 µM	–	16.7 µM	–	> 100 µM	–	> 100 µM	–	> 100 µM
C[C@]12CC[C@H]3[C@@H](CC[C@]4(O)C[C@@H](O[C@@H]5O[C@H](CO)[C@@H](O[C@@H]6OC[C@@H](O)[C@H](O)[C@H]6O)[C@H](O)[C@H]5O)CC[C@]34C=O)[C@@]1(O)CC[C@@H]2C1=CC(=O)OC1	1.46 µM	5.09 µM	1.82 µM	5.71 µM	1.42 µM	5.19 µM	1.06 µM	3.27 µM	0.781 µM	1.93 µM	0.306 µM	1.88 µM	1.98 µM	7.24 µM	0.902 µM	2.31 µM	1.77 µM	6.32 µM	1.12 µM	3.08 µM
CC/C(=C(/c1ccc(OCCN(C)C)cc1)c1ccc(OC(=O)CCCCCCCCC(=O)c2c(C)[nH]c(/C=C3\N=C(c4ccc[nH]4)C=C3OC)c2C)cc1)c1ccccc1	2.36 µM	5.93 µM	5.18 µM	> 100 µM	5.19 µM	> 100 µM	4.1 µM	> 100 µM	–	–	7.82 µM	> 100 µM	8.2 µM	78 µM	8.06 µM	> 100 µM	> 100 µM	> 100 µM	12.3 µM	> 100 µM
Cc1cc(-c2cc(OC(=O)c3ccccc3)ccc2Cl)cc2nnc(Nc3ccc(OCCN4CCCC4)cc3)nc12	1.45 µM	2.95 µM	1.61 µM	3.04 µM	1.89 µM	3.5 µM	0.46 µM	2.48 µM	1.61 µM	3.09 µM	1.35 µM	2.63 µM	1.68 µM	3.6 µM	1.75 µM	3.17 µM	1.5 µM	2.84 µM	2.47 µM	4.69 µM
CN1CCN(CCC=C2c3ccccc3Sc3ccc(S(=O)(=O)N(C)C)cc32)CC1	1.7 µM and 2.79 µM	3.7 µM and 8.66 µM	1.42 µM and 0.872 µM	3.26 µM and 2.91 µM	4.12 µM and 6.73 µM	16.2 µM and 20.8 µM	2.19 µM	7.74 µM	9.15 µM and 13.6 µM	> 100 µM and 63.5 µM	5.27 µM and 10.2 µM	27.3 µM and 27.6 µM	1.44 µM and 1.66 µM	2.82 µM and 3.7 µM	13 µM and 12.6 µM	> 100 µM and 26.9 µM	10.9 µM and 14.8 µM	38.8 µM and 30 µM	2.38 µM and 2.41 µM	4.65 µM
COc1c(B(O)O)cccc1-c1nc2c(F)cc3n[nH]c(C)c3c2c2c1CCCC2	0.688 µM	4.14 µM	1.95 µM	> 50 µM	0.661 µM	10.5 µM	0.964 µM	> 24.3 µM	1.42 µM	> 27 µM	0.534 µM	> 50 µM	1.51 µM	5.26 µM	1.42 µM	> 50 µM	1.08 µM	> 50 µM	0.5 µM	> 12.9 µM
O=C(CN1CCN(C(=O)c2ccco2)CC1)Nc1ccc(Cl)cc1C(=O)c1ccccc1Cl	11.1 µM	23.1 µM	6.23 µM	22.3 µM	13.6 µM	42.5 µM	0.896 µM	2.76 µM	5.53 µM	30 µM	10.3 µM	43.7 µM	7.32 µM	23.7 µM	15.5 µM	35.2 µM	24 µM	63 µM	1.31 µM	2.95 µM
Cn1c(=O)c(Oc2ccc(F)cc2F)cc2cnc(NCC(C)(C)O)nc21	> 25 µM	> 25 µM	> 25 µM	> 25 µM	> 25 µM	> 25 µM	> 25 µM	> 25 µM	–	–	> 25 µM	> 25 µM	> 25 µM	> 25 µM	> 25 µM	> 25 µM	> 25 µM	> 25 µM	> 25 µM	> 25 µM
Fc1ccc(Nc2nc3nonc3nc2Nc2ccc(I)cc2)cc1	0.349 µM	1.44 µM	0.303 µM	10.3 µM	0.298 µM	2.59 µM	0.252 µM	1.91 µM	0.273 µM	10.1 µM	0.171 µM	3.43 µM	0.208 µM	0.55 µM	0.395 µM	16.8 µM	0.373 µM	20.2 µM	–	–
CC1(C)C(CC(=O)O)CCCC1CC(=O)O (stereo unspecified)	–	> 100 µM	–	> 100 µM	–	> 100 µM	–	> 100 µM	–	> 100 µM	–	> 100 µM	–	> 100 µM	–	> 100 µM	–	> 100 µM	–	–
O=C(Nc1cccc(-n2cc(-c3ccncc3)c(-c3ccc(Cl)c(O)c3)n2)c1)Nc1ccc(Cl)c(Cl)c1	0.939 µM	3.57 µM	4.89 µM	> 32.5 µM	7.22 µM	> 32.5 µM	1.14 µM	15 µM	–	–	1.04 µM	> 32.5 µM	3.96 µM	9.49 µM	1.5 µM	> 32.5 µM	2.4 µM	> 32.5 µM	0.515 µM	> 32.5 µM
